As usually defined, the IC50 is the concentration needed to halve the response being measured. The low end stands for inhibition by little substance, the high end for a need for much substance.

The structures appear in SMILES notation.

The target of the assay is TRKA (Homo sapiens (Human), UniProt P04629). Description: Isolated TRK enzyme assay (HTRF KinEASE-TK), PV3144 TrkA enzyme assay. The note with it: arithmetic mean where more than one reading. Format: biochemical. Put shortly: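 His-tagged TrkA cytoplasmic domain preactivated with ATP 20 min, then with compound 20 min at room temperature before 1 µM final biotin-TK substrate; HTRF 665/620 nm read.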
Sequence of TRKA (P04629 441-796): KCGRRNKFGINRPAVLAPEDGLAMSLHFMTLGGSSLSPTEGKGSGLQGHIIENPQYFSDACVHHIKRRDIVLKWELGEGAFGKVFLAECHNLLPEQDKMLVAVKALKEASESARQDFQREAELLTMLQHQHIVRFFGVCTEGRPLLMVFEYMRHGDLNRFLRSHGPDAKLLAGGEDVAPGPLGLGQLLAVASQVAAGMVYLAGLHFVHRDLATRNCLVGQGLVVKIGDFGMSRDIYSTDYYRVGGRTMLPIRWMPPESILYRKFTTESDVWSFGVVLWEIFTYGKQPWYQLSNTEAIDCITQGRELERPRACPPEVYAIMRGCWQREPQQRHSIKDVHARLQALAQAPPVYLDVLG
(In general: In TR-FRET formats the signal depends on donor and acceptor labels being close together.)
With `CC(C)n1cc(C(=O)c2cc(NC(=O)Cn3ccc(C(F)(F)F)n3)ccn2)c2cnccc21` [Example 27, N-(2-{[1-(propan-2-yl)-1H-pyrrolo[3,2-c]pyridin-3-yl]carbonyl}pyridin-4-yl)-2[3-(trifluoromethyl)-1H-pyrazol-1-yl]acetamide], the 50% inhibitory concentration (IC50) was 89.7 nM. Regarding `Cc1cc(C(F)(F)F)nn1CC(=O)Nc1ccnc(C(=O)c2cn(C(C)C)c3ccncc23)c1` [Example 28, 2-[5-methyl-3-(trifluoromethyl)-1H-pyrazol-1-yl]-N-(2-{[1-(propan-2-yl)-1H-pyrrolo[3,2-c]pyridin-3-yl]carbonyl}pyridin-4-yl)acetamide], 10.6 nM corresponded to half-maximal inhibition (IC50). With `CC(C)n1cc(C(=O)c2cc(NC(=O)Cn3ccc(C4CC4)n3)ccn2)c2cnccc21` [Example 29, 2-(3-cyclopropyl-1H-pyrazol-1-yl)-N-(2-{[1-(propan-2-yl)-1H-pyrrolo[3,2-c]pyridin-3-yl]carbonyl}pyridin-4-yl)acetamide] the figure was 106 nM; with `CC(C)n1cc(C(=O)c2cc(NC(=O)Cn3cc(C(F)(F)F)cn3)ccn2)c2cnccc21` [Example 30, N-(2-{[1-(propan-2-yl)-1H-pyrrolo[3,2-c]pyridin-3-yl]carbonyl}pyridin-4-yl)-2[4-(trifluoromethyl)-1H-pyrazol-1-yl]acetamide], 13.3 nM; with `CC(C)n1cc(C(=O)c2cncc(NC(=O)Cn3cc(C(F)(F)F)cn3)c2)c2cncc(F)c21` [Example 31, N-(5-{[7-fluoro-1-(propan-2-yl)-1H-pyrrolo[3,2-c]pyridin-3-yl]carbonyl}pyridin-3-yl)-2[4-(trifluoromethyl)-1H-pyrazol-1-yl]acetamide], 9.66 nM. For `Cc1cc(C(F)(F)F)nn1CC(=O)Nc1cncc(C(=O)c2cn(C(C)C)c3c(F)cncc23)c1` [Example 32, N-(5-{[7-fluoro-1-(propan-2-yl)-1H-pyrrolo[3,2-c]pyridin-3-yl]carbonyl}pyridin-3-yl)-2-[5-methyl-3-(trifluoromethyl)-1H-pyrazol-1-yl]acetamide], the IC50 came out at 11.4 nM. With `CC(C)(CO)n1cc(C(=O)c2cncc(NC(=O)Cc3ccc(C(F)(F)F)cc3)c2)c2cnccc21` [Example 33, N-(5-{[1-(1-hydroxy-2-methylpropan-2-yl)-1H-pyrrolo[3,2-c]pyridin-3-yl]carbonyl}pyridin-3-yl)-2-[4-(trifluoromethyl)phenyl]acetamide] the figure was 3.11 nM. Next, `CC(C)n1cc(C(=O)c2cncc(NC(=O)Cc3ccc(C#N)c(C(F)(F)F)c3)c2)c2cnccc21` [Example 37, 2-[4-cyano-3-(trifluoromethyl)phenyl]-N-(5-{[1-(propan-2-yl)-1H-pyrrolo[3,2-c]pyridin-3-yl]carbonyl}pyridin-3-yl)acetamide]: 51.7 nM; `CC(C)n1cc(C(=O)c2cncc(NC(=O)Cn3cc(C(F)(F)F)nn3)c2)c2cnccc21` [Example 38, N-(5-{[1-(propan-2-yl)-1H-pyrrolo[3,2-c]pyridin-3-yl]carbonyl}pyridin-3-yl)-2[4-(trifluoromethyl)-1H-1,2,3-triazol-1-yl]acetamide]: 147 nM; `COCc1nc(CC(=O)Nc2cncc(C(=O)c3cn(C(C)C)c4ccncc34)c2)c(C2CC2)o1` [Example 39, 2-[5-cyclopropyl-2-(methoxymethyl)-1,3-oxazol-4-yl]-N-(5-{[1-(propan-2-yl)-1H-pyrrolo[3,2-c]pyridin-3-yl]carbonyl}pyridin-3-yl)acetamide]: 181 nM. Next, `Cc1nonc1CC(=O)Nc1cncc(C(=O)c2cn(C(C)C)c3ccncc23)c1` [Example 40, 2-(4-methyl-1,2,5-oxadiazol-3-yl)-N-(5-{[1-(propan-2-yl)-1H-pyrrolo[3,2-c]pyridin-3-yl]carbonyl}pyridin-3-yl)acetamide]: 1730 nM; `CC(C)n1cc(C(=O)c2cncc(NC(=O)Cc3cn(C)cn3)c2)c2cnccc21` [Example 41, 2-(1-methyl-1H-imidazol-4-yl)-N-(5-{[1-(propan-2-yl)-1H-pyrrolo[3,2-c]pyridin-3-yl]carbonyl}pyridin-3-yl)acetamide]: 3330 nM; `CC(C)n1cc(C(=O)c2cncc(NC(=O)Cc3nc(C(C)(C)C)nn3C)c2)c2cnccc21` [Example 42, 2-(3-tert-butyl-1-methyl-1H-1,2,4-triazol-5-yl)-N-(5-{[1-(propan-2-yl)-1H-pyrrolo[3,2-c]pyridin-3-yl]carbonyl}pyridin-3-yl)acetamide]: 179 nM. For the molecule `CC(C)n1cc(C(=O)c2cncc(NC(=O)Cc3coc(C4CC4)n3)c2)c2cnccc21` [Example 43, 2-(2-cyclopropyl-1,3-oxazol-4-yl)-N-(5-{[1-(propan-2-yl)-1H-pyrrolo[3,2-c]pyridin-3-yl]carbonyl}pyridin-3-yl)acetamide], the IC50 came out at 118 nM. In turn, `COCCn1nc(C(C)(C)C)nc1CC(=O)Nc1cncc(C(=O)c2cn(C(C)C)c3ccncc23)c1` [Example 44, 2-[3-tert-butyl-1-(2-methoxyethyl)-1H-1,2,4-triazol-5-yl]-N-(5-{[1-(propan-2-yl)-1H-pyrrolo[3,2-c]pyridin-3-yl]carbonyl}pyridin-3-yl)acetamide] showed an IC50 of 531 nM.

Consider `CC(C)n1cc(C(=O)c2cncc(NC(=O)Cc3cncn3C)c2)c2cnccc21` [Example 45, 2-(1-methyl-1H-imidazol-5-yl)-N-(5-{[1-(propan-2-yl)-1H-pyrrolo[3,2-c]pyridin-3-yl]carbonyl}pyridin-3-yl)acetamide], for which the IC50 was 1570 nM. With `CC(C)n1cc(C(=O)c2cncc(NC(=O)Cc3nccn3C)c2)c2cnccc21` [Example 46, 2-(1-methyl-1H-imidazol-2-yl)-N-(5-{[1-(propan-2-yl)-1H-pyrrolo[3,2-c]pyridin-3-yl]carbonyl}pyridin-3-yl)acetamide] the figure was 3080 nM; with `COc1ncc(C(=O)c2cn(C(C)C)c3ccncc23)cc1NC(=O)Cc1ccc(C#N)cc1` [Example 47, 2-(4-cyanophenyl)-N-(2-methoxy-5-{[1-(propan-2-yl)-1H-pyrrolo[3,2-c]pyridin-3-yl]carbonyl}pyridin-3-yl)acetamide], 187 nM; with `COc1ncc(C(=O)c2cn(C(C)C)c3ccncc23)cc1NC(=O)Cn1nc(C(F)(F)F)cc1C` [Example 48, N-(2-methoxy-5-{[1-(propan-2-yl)-1H-pyrrolo[3,2-c]pyridin-3-yl]carbonyl}pyridin-3-yl)-2-[5-methyl-3-(trifluoromethyl)-1H-pyrazol-1-yl]acetamide], 33.8 nM. Molecule `CC(C)n1cc(C(=O)c2cncc(NC(=O)Cc3ccc(C#N)cc3)c2)c2cnccc21` [Example 49, 2-(4-cyanophenyl)-N-(5-{[1-(propan-2-yl)-1H-pyrrolo[3,2-c]pyridin-3-yl]carbonyl}pyridin-3-yl)acetamide] came in with an IC50 of 180 nM. Next, `CC(C)n1cc(CC(=O)Nc2cncc(C(=O)c3cn(C(C)C)c4ccncc34)c2)c(C(F)(F)F)n1` [Example 50, N-(5-{[1-(propan-2-yl)-1H-pyrrolo[3,2-c]pyridin-3-yl]carbonyl}pyridin-3-yl)-2-[1-(propan-2-yl)-3-(trifluoromethyl)-1H-pyrazol-4-yl]acetamide]: 133 nM; `CC(C)n1cc(C(=O)c2cncc(NC(=O)Cn3cc(C4CC4)nn3)c2)c2cnccc21` [Example 51, 2-(4-cyclopropyl-1H-1,2,3-triazol-1-yl)-N-(5-{[1-(propan-2-yl)-1H-pyrrolo[3,2-c]pyridin-3-yl]carbonyl}pyridin-3-yl)acetamide]: 68.2 nM. With `CC(C)n1cc(C(=O)c2cc(NC(=O)Cn3cc(C4CC4)nn3)ccn2)c2cnccc21` [Example 52, 2-(4-cyclopropyl-1H-1,2,3-triazol-1-yl)-N-(2-{[1-(propan-2-yl)-1H-pyrrolo[3,2-c]pyridin-3-yl]carbonyl}pyridin-4-yl)acetamide] the figure was 137 nM; with `CC(C)n1cc(C(=O)c2cc(NC(=O)Cn3cc(C(F)(F)F)nn3)ccn2)c2cnccc21` [Example 53, N-(2-{[1-(propan-2-yl)-1H-pyrrolo[3,2-c]pyridin-3-yl]carbonyl}pyridin-4-yl)-2-[4-(trifluoromethyl)-1H-1,2,3-triazol-1-yl]acetamide], 110 nM.

Molecule `CC(C)n1cc(C(=O)c2cc(NC(=O)Cc3ccc(C#N)cc3)ccn2)c2cnccc21` [Example 54, 2-(4-cyanophenyl)-N-(2-{[1-(propan-2-yl)-1H-pyrrolo[3,2-c]pyridin-3-yl]carbonyl}pyridin-4-yl)acetamide] registered a concentration for half-maximal inhibition (IC50) of 176 nM. `CC(C)n1cc(C(=O)c2cc(NC(=O)Cc3ccc(Cl)cn3)ccn2)c2cnccc21` [Example 55, 2-(5-chloropyridin-2-yl)-N-(2-{[1-(propan-2-yl)-1H-pyrrolo[3,2-c]pyridin-3-yl]carbonyl}pyridin-4-yl)acetamide] showed an IC50 of 73.8 nM. Next, `CC(C)n1cc(C(=O)c2cc(NC(=O)Cc3cnn(C4CC4)c3C(F)(F)F)ccn2)c2cnccc21` [Example 56, 2-[1-cyclopropyl-5-(trifluoromethyl)-1H-pyrazol-4-yl]-N-(2-{[1-(propan-2-yl)-1H-pyrrolo[3,2-c]pyridin-3-yl]carbonyl}pyridin-4-yl)acetamide]: 177 nM. With `CC(C)n1cc(C(=O)c2cc(NC(=O)Cc3cn(C4CC4)nc3C(F)(F)F)ccn2)c2cnccc21` [Example 57], the IC50 is 1680 nM. With `Cc1nn(C)cc1CC(=O)Nc1ccnc(C(=O)c2cn(C(C)C)c3ccncc23)c1` [Example 58, 2-(1,3-dimethyl-1H-pyrazol-4-yl)-N-(2-{[1-(propan-2-yl)-1H-pyrrolo[3,2-c]pyridin-3-yl]carbonyl}pyridin-4-yl)acetamide] the figure was 6520 nM; with `CC(CO)n1cc(C(=O)c2cncc(NC(=O)Cn3ccc(C(F)(F)F)n3)c2)c2cnccc21` (stereo not shown) [Example 60, N-(5-{[1-(1-hydroxypropan-2-yl)-1H-pyrrolo[3,2-c]pyridin-3-yl]carbonyl}pyridin-3-yl)-2-[3-(trifluoromethyl)-1H-pyrazol-1-yl]acetamide], 44.7 nM; with `CC(CO)n1cc(C(=O)c2cncc(NC(=O)Cc3ccc(C#N)cc3)c2)c2cnccc21` (stereo not shown) [Example 67], 101 nM.

The values above are taken from patent publication US9163021B2, “Pyrrolo[3,2-c]pyridine tropomyosin-related kinase inhibitors” (Pfizer Limited, priority 2012, dated 2015).
